Values joined by “and” are separate entries in the source; they are usually repeats but may differ in a detail not shown here. Identical values can stand only once. “Also recorded” adds a separate entry of the source. Like-named read-outs stand apart in the source and are kept apart here. Where no end group is shown, it is not given here.

Assay [1] concerns HIV-1 TAR RNA (biotinylated TAR 27-mer). Type of assay: binding.
For assay [2], the system named is Tat ARM binding to HIV-1 TAR RNA.
A further assay has as its target HIV-1 TAR RNA (27-mer). Type of assay: binding.
Where [3] appears, read: pH 7.5, read-out: KD (apparent).

With “PRQRTPRGQ (also: sidechain bridge or staple (positions not given here)) [TB-CP-6.7a, two terminal cysteines cross-linked via a methylene bridge]”, in assay [1], the koff is 0.018 ± 0.0001 s⁻¹; the “koff × 10^−2” value was 1.90 10^−2 s^−1; the kon is 863.0 ± 59.0 M⁻¹ s⁻¹ and 803 ± 14 M⁻¹ s⁻¹. The Kd in assay [1] (setting [3]) was 22 µM. Also, the Kd in assay [1] (read-out: KD) is 23 ± 0.1 µM.
Take “RRRTPR (also: sidechain bridge or staple (positions not given here)) [TB-CP-6.9a, cyclic peptide (11-mer]”: the “block of Tat ARM binding to TAR” value in assay [2] was “formed a complex with TAR that occluded Tat-binding sites; also recorded: effectively block the interaction of TAR with the Tat ARM”. In addition, in assay [1], the “TAR binding in presence of tRNA” value is reported as “capable of binding under this condition”, the “fold difference in TAR-binding affinity” value is on record as ~6 -fold, the “fold increase in kon” value is recorded as 8 -fold and the koff stood at 0.024 ± 0.0001 s⁻¹. In assay [1], the “koff × 10^−2” value is listed as 2.75 10^−2 s^−1 and the kon was 7463 ± 130 M⁻¹ s⁻¹. In addition, the “kon × 10^2” value in assay [1] (0.625–20 μM) was 76.50 10^2 M^−1s^−1. The Kd in assay [1] (setting [3]) turned out to be 3.6 µM. Besides, the Kd in assay [1] (read-out: KD) worked out at 3.2 ± 0.8 µM. In addition, on HIV-1 TAR RNA (27-mer), the Kd was found to be 5 ± 0.6 µM, the “ΔG°” value was -7.1 ± 0.02 kcal/mol, the “ΔH°” value is reported as −7.2 ± 0.2 kca/mol and the “−TΔS°” value is 0.1 ± 0.2 kcal/mol. This substance returned a Kd at HIV-1 TAR RNA (27-mer) (pH 7.5) of 5.3 ± 0.2 µM.

In general, koff refers to a measure of how fast the partners let go of each other. The kon is the rate constant with which the complex forms. Higher therefore signals faster complex formation.

(Values after article PMC7864049, “Co-crystal structures of HIV TAR RNA bound to lab-evolved proteins show key roles for arginine relevant to the design of cyclic peptide TAR inhibitors” (The Journal of Biological Chemistry, 2021).)
